Results taken from US6706663B2, “Herbicidal 3-heterocyclic substituted benzisothiazole and benzisoxazole compounds” (Wyeth, priority 2000, dated 2004).

What was measured:
GLXMA (Soybean) = test: Preemergence herbicidal evaluation; type: in vivo, Glycine max, (L.) Merr.; conditions: rated 4-5 weeks after treatment
SETVI (Setaria viridis) [1] = test: Postemergence herbicidal evaluation; type: in vivo, (L.) Beau; conditions: for SETVI herbicidal rating: postemergence
How it was run: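 Ratings use a 0-9 visual scale covering stand, vigor, malformation, size, chlorosis and appearance versus a control, scored 4-5 weeks post-spray. Roughly two-week-old seedlings received about 0.0040-1.000 kg/ha active, applied in 50/50 acetone/water with 0.5% TWEEN 20. Multiple tests per compound were averaged.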

[2] = test system: TRZAWR (Wheat, Winter, cv Riband); test: Postemergence herbicidal evaluation; type: in vivo, Triticum aestivum; conditions: for TRZAWR herbicidal rating: postemergence
How it was run: (§1)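 Seedlings grown for about two weeks were sprayed postemergence and then kept under standard greenhouse care. Injury was rated visually 4–5 weeks after treatment on a 0–9 scale against untreated controls, and ratings from repeat tests were averaged.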

ORYSAT (Rice, Tebonnet) [3] = test: Postemergence herbicidal evaluation; type: in vivo, Oryza sativa, (L.) Tebonnet; conditions: for ORYSAT herbicidal rating: postemergence
How it was run: as §1

ORYSAT (Rice, Tebonnet) [4] = test: Flooded paddy, post-transplant rice tolerance; type: in vivo, Oryza sativa, (L.) Tebonnet; conditions: flooded paddy, post-transplant rice, rated 3-4 weeks after treatment, 0-9 rating scale
How it was run: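 Visual 0–9 injury rating against a control, covering stand, vigor, malformation, size, chlorosis and overall appearance. Treatment was post-transplant onto flooded containers (water 1.5–3 cm deep, silt loam) holding two ten-day-old cv. Tebonnet seedlings, maintained on greenhouse benches.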

SETVI (Setaria viridis) [5] = test: Preemergence herbicidal evaluation; type: in vivo, (L.) Beau; conditions: rated 4-5 weeks after treatment
How it was run: (§2)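 Test compound is applied in aqueous acetone to cups just after seeding. Cups are watered and maintained on greenhouse benches. Each cup is scored 0–9 by eye relative to a control after four to five weeks.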

[6] = test system: ECHCG (Echinochloa crus-galli); test: Preemergence herbicidal evaluation; type: in vivo, (L.) Beau; conditions: rated 4-5 weeks after treatment
How it was run: as §2

[7] = test system: MOOVA (Monochoria vaginalis); test: Flooded paddy, preemergence weed control; type: in vivo, Presl.; conditions: rated 3-4 weeks after treatment, 0-9 rating scale
How it was run: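 Seeds or propagating organs were sown in the top 0.5 cm of silt loam soil, flooded, and the water kept 1.5 to 3 cm above the soil surface throughout. Plants were grown in the greenhouse and rated visually on a 0-9 scale against a control.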

[8] = test system: ABUTH (Abutilon theophrasti); test: Preemergence herbicidal evaluation; type: in vivo, Medic.; conditions: rated 4-5 weeks after treatment
[9] = preemergence, rate 0.0620 kg/ha
[10] = preemergence, rate 0.1250 kg/ha
[11] = preemergence, rate 0.2500 kg/ha

Cn1c(C(F)(F)F)cc(=O)n(-c2ccc3snc(C4OCCO4)c3c2)c1=O [Compound 45, 3-[3-(1,3-dioxolan-2-yl)-1,2-benzisothiazol-5-yl]-1-methyl-6-(trifluoromethyl)uracil]
Preemergence herbicidal rating GLXMA (GLXMA (Soybean); Rate 0.0620 kg/ha): 9.0 | Preemergence herbicidal rating GLXMA (GLXMA (Soybean); Rate 0.1250 kg/ha): 9.0 | Preemergence herbicidal rating GLXMA (GLXMA (Soybean); Rate 0.2500 kg/ha): 9.0 | Postemergence herbicidal rating, SETVI (SETVI (Setaria viridis) [1]; rate 0.0320 kg/ha): 6.3 | Postemergence herbicidal rating, SETVI (SETVI (Setaria viridis) [1]; rate 0.0620 kg/ha): 9.0 | Postemergence herbicidal rating, TRZAWR ([2]; rate 0.0320 kg/ha): 4.4 | Postemergence herbicidal rating, TRZAWR ([2]; rate 0.0620 kg/ha): 5.0 | Postemergence herbicidal rating, ORYSAT (ORYSAT (Rice, Tebonnet) [3]; rate 0.0320 kg/ha): 4.3 | Postemergence herbicidal rating, ORYSAT (ORYSAT (Rice, Tebonnet) [3]; rate 0.0620 kg/ha): 5.2 | herbicidal rating, ORYSAT (rice tolerance) (ORYSAT (Rice, Tebonnet) [4]; rate 0.0080 kg/ha): 8.5 | herbicidal rating, ORYSAT (rice tolerance) (ORYSAT (Rice, Tebonnet) [4]; rate 0.0320 kg/ha): 9.0 | herbicidal rating, ORYSAT (rice tolerance) (ORYSAT (Rice, Tebonnet) [4]; rate 0.1250 kg/ha): 9.0 | Preemergence herbicidal rating SETVI (SETVI (Setaria viridis) [5]; Rate 0.0620 kg/ha): 9.0 | Preemergence herbicidal rating SETVI (SETVI (Setaria viridis) [5]; Rate 0.1250 kg/ha): 9.0 | Preemergence herbicidal rating SETVI (SETVI (Setaria viridis) [5]; Rate 0.2500 kg/ha): 9.0 | Preemergence herbicidal rating ECHCG ([6]; Rate 0.0620 kg/ha): 9.0 | Preemergence herbicidal rating ECHCG ([6]; Rate 0.1250 kg/ha): 9.0 | Preemergence herbicidal rating ECHCG ([6]; Rate 0.2500 kg/ha): 9.0 | herbicidal rating, MOOVA ([7]; rate 0.0080 kg/ha): 4.5 | herbicidal rating, MOOVA ([7]; rate 0.0320 kg/ha): 9.0 | herbicidal rating, MOOVA ([7]; rate 0.1250 kg/ha): 9.0 | Preemergence herbicidal rating ABUTH ([8]; Rate 0.0620 kg/ha): 9.0 | Preemergence herbicidal rating ABUTH ([8]; Rate 0.1250 kg/ha): 9.0 | Preemergence herbicidal rating ABUTH ([8]; Rate 0.2500 kg/ha): 9.0

CSCC1COC(c2nsc3ccc(-n4c(=O)cc(C(F)(F)F)n(C)c4=O)cc23)O1 (centres unmarked) [Compound 84, 1-methyl-3-[3-[4-[(methylthio)methyl]-1,3-dioxolan-2-yl]-1,2-benzisothiazol-5-yl]-6-(trifluoromethyl)uracil]
Preemergence herbicidal rating GLXMA (GLXMA (Soybean); [9]): 9.0 | Preemergence herbicidal rating GLXMA (GLXMA (Soybean); [10]): 9.0 | Preemergence herbicidal rating GLXMA (GLXMA (Soybean); [11]): 9.0 | SETVI herbicidal rating (SETVI (Setaria viridis) [1]; rate 0.0320 kg/ha): 6.0 | SETVI herbicidal rating (SETVI (Setaria viridis) [1]; rate 0.0620 kg/ha): 9.0 | TRZAWR herbicidal rating ([2]; rate 0.0320 kg/ha): 4.8 | TRZAWR herbicidal rating ([2]; rate 0.0620 kg/ha): 6.3 | TRZAWR herbicidal rating ([2]; rate 0.1250 kg/ha): 9.0 | ORYSAT herbicidal rating (ORYSAT (Rice, Tebonnet) [3]; rate 0.0320 kg/ha): 5.3 | ORYSAT herbicidal rating (ORYSAT (Rice, Tebonnet) [3]; rate 0.0620 kg/ha): 6.5 | ORYSAT herbicidal rating (ORYSAT (Rice, Tebonnet) [3]; rate 0.1250 kg/ha): 9.0 | herbicidal rating, ORYSAT (rice tolerance) (ORYSAT (Rice, Tebonnet) [4]; rate 0.0080 kg/ha): 0.0 | herbicidal rating, ORYSAT (rice tolerance) (ORYSAT (Rice, Tebonnet) [4]; rate 0.0320 kg/ha): 1.5 | herbicidal rating, ORYSAT (rice tolerance) (ORYSAT (Rice, Tebonnet) [4]; rate 0.1250 kg/ha): 5.5 | Preemergence herbicidal rating SETVI (SETVI (Setaria viridis) [5]; [9]): 3.5 | Preemergence herbicidal rating SETVI (SETVI (Setaria viridis) [5]; [10]): 7.5 | Preemergence herbicidal rating SETVI (SETVI (Setaria viridis) [5]; [11]): 9.0 | Preemergence herbicidal rating ECHCG [6, 9]: 4.0 | Preemergence herbicidal rating ECHCG [6, 10]: 6.7 | Preemergence herbicidal rating ECHCG [6, 11]: 9.0 | herbicidal rating, MOOVA ([7]; rate 0.0080 kg/ha): 9.0 | herbicidal rating, MOOVA ([7]; rate 0.0320 kg/ha): 9.0 | herbicidal rating, MOOVA ([7]; rate 0.1250 kg/ha): 9.0 | Preemergence herbicidal rating ABUTH [8, 9]: 9.0 | Preemergence herbicidal rating ABUTH [8, 10]: 9.0 | Preemergence herbicidal rating ABUTH [8, 11]: 9.0

Cn1c(C(F)(F)F)cc(=O)n(-c2ccc3snc(C4OCC(C[S+](C)[O-])O4)c3c2)c1=O (centres unmarked) [Compound 88, 1-methyl-3-[3-[4-[(methylsulfinyl)methyl]-1,3-dioxolan-2-yl]-1,2-benzisothiazol-5-yl]-6-(trifluoromethyl)uracil]
Preemergence herbicidal rating GLXMA (GLXMA (Soybean); [9]): 9.0 | Preemergence herbicidal rating GLXMA (GLXMA (Soybean); [10]): 9.0 | Preemergence herbicidal rating GLXMA (GLXMA (Soybean); [11]): 9.0 | SETVI herbicidal rating (SETVI (Setaria viridis) [1]; rate 0.0320 kg/ha): 9.0 | SETVI herbicidal rating (SETVI (Setaria viridis) [1]; rate 0.0620 kg/ha): 9.0 | TRZAWR herbicidal rating ([2]; rate 0.0320 kg/ha): 3.0 | TRZAWR herbicidal rating ([2]; rate 0.0620 kg/ha): 3.5 | ORYSAT herbicidal rating (ORYSAT (Rice, Tebonnet) [3]; rate 0.0320 kg/ha): 4.0 | ORYSAT herbicidal rating (ORYSAT (Rice, Tebonnet) [3]; rate 0.0620 kg/ha): 4.0 | ORYSAT herbicidal rating (transplanted rice tolerance) (ORYSAT (Rice, Tebonnet) [4]; rate 0.0320 kg/ha): 0.0 | ORYSAT herbicidal rating (transplanted rice tolerance) (ORYSAT (Rice, Tebonnet) [4]; rate 0.1250 kg/ha): 5.0 | Preemergence herbicidal rating SETVI (SETVI (Setaria viridis) [5]; [9]): 5.5 | Preemergence herbicidal rating SETVI (SETVI (Setaria viridis) [5]; [10]): 9.0 | Preemergence herbicidal rating SETVI (SETVI (Setaria viridis) [5]; [11]): 9.0 | Preemergence herbicidal rating ECHCG [6, 9]: 5.5 | Preemergence herbicidal rating ECHCG [6, 10]: 6.5 | Preemergence herbicidal rating ECHCG [6, 11]: 9.0 | MOOVA herbicidal rating ([7]; rate 0.0320 kg/ha): 0.0 | MOOVA herbicidal rating ([7]; rate 0.1250 kg/ha): 9.0 | Preemergence herbicidal rating ABUTH [8, 9]: 9.0 | Preemergence herbicidal rating ABUTH [8, 10]: 9.0 | Preemergence herbicidal rating ABUTH [8, 11]: 9.0

Cn1c(C(F)(F)F)cc(=O)n(-c2ccc3snc(C4OCC(CS(C)(=O)=O)O4)c3c2)c1=O (single isomer, unassigned) [Compound 86, 1-methyl-3-[3-[4-[(methylsulfonyl)methyl]-1,3-dioxolan-2-yl]-1,2-benzisothiazol-5-yl]-6-(trifluoromethyl)uracil]
Preemergence herbicidal rating GLXMA (GLXMA (Soybean); [9]): 5.0 | Preemergence herbicidal rating GLXMA (GLXMA (Soybean); [10]): 9.0 | Preemergence herbicidal rating GLXMA (GLXMA (Soybean); [11]): 9.0 | SETVI herbicidal rating (SETVI (Setaria viridis) [1]; rate 0.0320 kg/ha): 8.0 | SETVI herbicidal rating (SETVI (Setaria viridis) [1]; rate 0.0620 kg/ha): 9.0 | TRZAWR herbicidal rating ([2]; rate 0.0320 kg/ha): 2.5 | TRZAWR herbicidal rating ([2]; rate 0.0620 kg/ha): 3.0 | ORYSAT herbicidal rating (ORYSAT (Rice, Tebonnet) [3]; rate 0.0320 kg/ha): 4.0 | ORYSAT herbicidal rating (ORYSAT (Rice, Tebonnet) [3]; rate 0.0620 kg/ha): 5.5 | ORYSAT herbicidal rating (transplanted rice tolerance) (ORYSAT (Rice, Tebonnet) [4]; rate 0.0320 kg/ha): 0.0 | ORYSAT herbicidal rating (transplanted rice tolerance) (ORYSAT (Rice, Tebonnet) [4]; rate 0.1250 kg/ha): 5.0 | Preemergence herbicidal rating SETVI (SETVI (Setaria viridis) [5]; [9]): 7.5 | Preemergence herbicidal rating SETVI (SETVI (Setaria viridis) [5]; [10]): 9.0 | Preemergence herbicidal rating SETVI (SETVI (Setaria viridis) [5]; [11]): 9.0 | Preemergence herbicidal rating ECHCG [6, 9]: 7.5 | Preemergence herbicidal rating ECHCG [6, 10]: 9.0 | Preemergence herbicidal rating ECHCG [6, 11]: 9.0 | MOOVA herbicidal rating ([7]; rate 0.0320 kg/ha): 5.0 | MOOVA herbicidal rating ([7]; rate 0.1250 kg/ha): 9.0 | Preemergence herbicidal rating ABUTH [8, 9]: 9.0 | Preemergence herbicidal rating ABUTH [8, 10]: 9.0 | Preemergence herbicidal rating ABUTH [8, 11]: 9.0

Cn1c(C(F)(F)F)cc(=O)n(-c2ccc3snc(C4OCC(CS(C)(=O)=O)O4)c3c2)c1=O (single isomer, unassigned) [Compound 87, 1-methyl-3-[3-[4-[(methylsulfonyl)methyl]-1,3-dioxolan-2-yl]-1,2-benzisothiazol-5-yl]-6-(trifluoromethyl)uracil]
Preemergence herbicidal rating GLXMA (GLXMA (Soybean); [9]): 9.0 | Preemergence herbicidal rating GLXMA (GLXMA (Soybean); [10]): 9.0 | Preemergence herbicidal rating GLXMA (GLXMA (Soybean); [11]): 9.0 | SETVI herbicidal rating (SETVI (Setaria viridis) [1]; rate 0.0320 kg/ha): 6.0 | SETVI herbicidal rating (SETVI (Setaria viridis) [1]; rate 0.0620 kg/ha): 9.0 | TRZAWR herbicidal rating ([2]; rate 0.0320 kg/ha): 3.0 | TRZAWR herbicidal rating ([2]; rate 0.0620 kg/ha): 4.0 | ORYSAT herbicidal rating (ORYSAT (Rice, Tebonnet) [3]; rate 0.0320 kg/ha): 3.0 | ORYSAT herbicidal rating (ORYSAT (Rice, Tebonnet) [3]; rate 0.0620 kg/ha): 3.5 | ORYSAT herbicidal rating (transplanted rice tolerance) (ORYSAT (Rice, Tebonnet) [4]; rate 0.0320 kg/ha): 0.0 | ORYSAT herbicidal rating (transplanted rice tolerance) (ORYSAT (Rice, Tebonnet) [4]; rate 0.1250 kg/ha): 3.0 | Preemergence herbicidal rating SETVI (SETVI (Setaria viridis) [5]; [9]): 6.0 | Preemergence herbicidal rating SETVI (SETVI (Setaria viridis) [5]; [10]): 8.0 | Preemergence herbicidal rating SETVI (SETVI (Setaria viridis) [5]; [11]): 9.0 | Preemergence herbicidal rating ECHCG [6, 9]: 5.5 | Preemergence herbicidal rating ECHCG [6, 10]: 6.5 | Preemergence herbicidal rating ECHCG [6, 11]: 9.0 | MOOVA herbicidal rating ([7]; rate 0.0320 kg/ha): 0.0 | MOOVA herbicidal rating ([7]; rate 0.1250 kg/ha): 8.0 | Preemergence herbicidal rating ABUTH [8, 9]: 9.0 | Preemergence herbicidal rating ABUTH [8, 10]: 9.0 | Preemergence herbicidal rating ABUTH [8, 11]: 9.0
